Laboratory results from ChEMBL document CHEMBL1154508, “Discovery of GSK345931A: An EP(1) receptor antagonist with efficacy in preclinical models of inflammatory pain” (Bioorg Med Chem Lett, 2009).

Columns and labels:
[1] = Drug level in blood of sub-chronic rat joint pain efficacy model satellite animal group at 5 mg/kg bid measured on day 5 after 1 hr post dose; format: ADME, organism-based; set-up: dose 5 mg/kg; conditions: read-out: Drug uptake
[2] = Drug level in blood of sub-chronic rat joint pain efficacy model satellite animal group at 20 mg/kg bid measured on day 5 after 1 hr post dose; format: ADME, organism-based; set-up: dose 20 mg/kg; conditions: read-out: Drug uptake
[3] = Drug level in brain of sub-chronic rat joint pain efficacy model satellite animal group at 20 mg/kg bid measured on day 5 after 1 hr post dose; format: ADME, organism-based; set-up: dose 20 mg/kg; conditions: read-out: Drug uptake
Thromboxane A2 receptor [4] = target: T1, Thromboxane A2 receptor (Homo sapiens, UniProt P21731); experiment: Activity at TP receptor by FLIPR method
T1 sequence (P21731 whole entry): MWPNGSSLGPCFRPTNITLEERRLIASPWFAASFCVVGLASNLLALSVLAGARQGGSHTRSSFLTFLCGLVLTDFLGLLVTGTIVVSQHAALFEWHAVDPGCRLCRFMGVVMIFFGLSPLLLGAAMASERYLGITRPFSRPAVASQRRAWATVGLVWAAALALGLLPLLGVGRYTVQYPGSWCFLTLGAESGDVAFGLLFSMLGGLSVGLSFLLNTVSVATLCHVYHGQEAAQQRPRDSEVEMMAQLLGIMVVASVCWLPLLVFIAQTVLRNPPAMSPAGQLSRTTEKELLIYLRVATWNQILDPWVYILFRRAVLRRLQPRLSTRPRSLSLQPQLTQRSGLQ

[5] = target: Prostaglandin F2-alpha receptor (Homo sapiens, UniProt P43088); experiment: Activity at PGF2alpha receptor by FLIPR method
[6] = target: T2, Prostaglandin E2 receptor EP1 subtype (Homo sapiens, UniProt P34995); experiment: Binding affinity to human EP1 receptor
T2 sequence (P34995 whole entry): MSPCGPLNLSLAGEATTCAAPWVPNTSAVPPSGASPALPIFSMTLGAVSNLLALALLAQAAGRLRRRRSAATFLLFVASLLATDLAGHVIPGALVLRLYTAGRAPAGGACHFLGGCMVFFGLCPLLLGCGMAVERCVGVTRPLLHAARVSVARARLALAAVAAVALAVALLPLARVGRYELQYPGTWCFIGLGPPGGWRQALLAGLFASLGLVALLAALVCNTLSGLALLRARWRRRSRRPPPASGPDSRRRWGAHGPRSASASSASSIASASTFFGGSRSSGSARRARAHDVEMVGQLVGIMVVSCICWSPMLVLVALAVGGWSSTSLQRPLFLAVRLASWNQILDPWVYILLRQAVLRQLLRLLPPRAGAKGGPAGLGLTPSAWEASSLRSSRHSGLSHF

[7] = target: T3, Prostaglandin E2 receptor EP1 subtype (Rattus norvegicus, UniProt P70597); experiment: Binding affinity to rat EP1 receptor
T3 sequence (P70597 whole entry): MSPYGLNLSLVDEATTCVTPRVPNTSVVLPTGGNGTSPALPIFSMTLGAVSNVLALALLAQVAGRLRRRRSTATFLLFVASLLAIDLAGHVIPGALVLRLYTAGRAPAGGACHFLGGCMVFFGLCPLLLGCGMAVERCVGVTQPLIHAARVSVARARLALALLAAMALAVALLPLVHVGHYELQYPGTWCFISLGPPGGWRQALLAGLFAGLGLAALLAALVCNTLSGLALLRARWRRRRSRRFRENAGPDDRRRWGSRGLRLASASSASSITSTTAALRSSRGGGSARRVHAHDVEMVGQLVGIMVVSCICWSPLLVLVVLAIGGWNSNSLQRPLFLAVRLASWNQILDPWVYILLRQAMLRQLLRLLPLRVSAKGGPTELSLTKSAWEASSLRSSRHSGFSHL

Thromboxane A2 receptor [8] = target: T1, Thromboxane A2 receptor; experiment: Binding affinity to TP receptor
[9] = Partition ratio of fraction unbound in rat brain to blood; format: ADME, tissue-based
[10] = target: T2, Prostaglandin E2 receptor EP1 subtype; experiment: Binding affinity to EP1 receptor
[11] = Aqueous solubility in water after 2 hrs; format: physicochemical
[12] = Solubility in fed state simulated intestinal fluid after 24 hrs; format: physicochemical
[13] = Oral bioavailability in rat at 3 mg/kg; format: ADME, organism-based; conditions: in vivo
[14] = Blood clearance in cynomolgus monkey at 1 mg/kg, iv; format: ADME, organism-based, Macaca fascicularis; set-up: dose 1 mg/kg, route intravenous
[15] = Volume of distribution at steady state in cynomolgus monkey at 1 mg/kg, iv; format: ADME, organism-based, Macaca fascicularis; set-up: dose 1 mg/kg, route intravenous; conditions: in vivo, read-out: Vdss
[16] = Half life in cynomolgus monkey at 1 mg/kg, iv; format: ADME, organism-based, Macaca fascicularis; set-up: dose 1 mg/kg, route intravenous; conditions: in vivo
[17] = Metabolic stability assessed as intrinsic clearance per gram of monkey liver microsomes; format: ADME, Macaca mulatta, Microsome; conditions: rhesus monkey
[18] = Drug level in mouse brain at 3 mg/kg, po after 0.5 hrs; format: ADME, organism-based; set-up: dose 3 mg/kg, route oral; conditions: read-out: Drug uptake
[19] = Ratio of drug level in brain to blood in rat at 0.28 mg/kg/hr, iv for 18 hrs; format: ADME, organism-based; set-up: route intravenous
[20] = Steady state blood clearance in rat at 0.28 mg/kg/hr, iv for 18 hrs; format: ADME, organism-based; set-up: route intravenous
Rattus norvegicus = species: Rattus norvegicus; experiment: Antiinflammatory activity against complete Freund's adjuvant-induced hypersensitivity in rat inflammatory pain model; format: functional
[21] = Drug level in brain of complete Freund's adjuvant-induced rat inflammatory pain model at 1 mg/kg, po after 1 hr; format: ADME, organism-based; set-up: dose 1 mg/kg, route oral; conditions: read-out: Drug uptake
[22] = Drug level in brain of complete Freund's adjuvant-induced rat inflammatory pain model at 3 mg/kg, po after 1 hr; format: ADME, organism-based; set-up: dose 3 mg/kg, route oral; conditions: read-out: Drug uptake
[23] = Drug level in blood of complete Freund's adjuvant-induced rat inflammatory pain model at 1 mg/kg, po after 1 hr; format: ADME, organism-based; set-up: dose 1 mg/kg, route oral; conditions: read-out: Drug uptake
[24] = Drug level in blood of sub-chronic rat joint pain efficacy model treatment group at 20 mg/kg bid measured on day 5 after 1 hr post dose; format: ADME, organism-based; set-up: dose 20 mg/kg; conditions: read-out: Drug uptake
[25] = Drug level in brain of sub-chronic rat joint pain efficacy model treatment group at 20 mg/kg bid measured on day 5 after 1 hr post dose; format: ADME, organism-based; set-up: dose 20 mg/kg; conditions: read-out: Drug uptake
[26] = Ratio of drug level in brain to blood of sub-chronic rat joint pain efficacy model treatment group at 20 mg/kg bid measured on day 5 after 1 hr post dose; format: ADME, organism-based; set-up: dose 20 mg/kg
[27] = target: T4, Peroxisome proliferator-activated receptor delta (Homo sapiens, UniProt Q03181); experiment: Binding affinity PPARdelta
T4 sequence (Q03181 whole entry): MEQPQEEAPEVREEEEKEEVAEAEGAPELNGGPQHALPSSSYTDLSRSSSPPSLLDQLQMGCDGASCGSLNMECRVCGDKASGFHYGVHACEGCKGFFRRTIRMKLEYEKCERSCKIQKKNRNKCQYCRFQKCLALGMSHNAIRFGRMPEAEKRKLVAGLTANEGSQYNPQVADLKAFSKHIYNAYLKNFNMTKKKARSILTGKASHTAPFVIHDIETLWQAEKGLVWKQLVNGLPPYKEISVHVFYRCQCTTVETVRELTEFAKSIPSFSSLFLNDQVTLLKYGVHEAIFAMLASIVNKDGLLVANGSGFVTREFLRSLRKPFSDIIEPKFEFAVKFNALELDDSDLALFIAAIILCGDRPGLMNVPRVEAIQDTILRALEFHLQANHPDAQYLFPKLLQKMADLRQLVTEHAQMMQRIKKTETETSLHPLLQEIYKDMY

[28] = Fraction unbound in rat brain
[29] = target: T2, Prostaglandin E2 receptor EP1 subtype; experiment: Antagonist activity at EP1 receptor by FLIPR calcium mobilization assay

Prostaglandin F2-alpha receptor, sequence (P43088 whole entry): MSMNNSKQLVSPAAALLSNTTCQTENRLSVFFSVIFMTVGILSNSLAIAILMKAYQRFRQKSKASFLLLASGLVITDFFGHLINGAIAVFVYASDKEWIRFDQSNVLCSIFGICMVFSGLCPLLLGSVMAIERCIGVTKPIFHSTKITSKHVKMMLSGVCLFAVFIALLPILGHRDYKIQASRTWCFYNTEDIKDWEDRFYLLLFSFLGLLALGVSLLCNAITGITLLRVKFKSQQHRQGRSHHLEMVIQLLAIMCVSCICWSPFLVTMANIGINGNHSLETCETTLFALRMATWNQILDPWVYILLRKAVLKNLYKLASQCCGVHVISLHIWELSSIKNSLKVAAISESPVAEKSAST

CC(C)COc1ccc(Cl)cc1-c1ccccc1-c1cccc(C(=O)[O-])n1.[Na+]
concentration at 1 h [1]: 1660 nM | concentration at 1 h [2]: 6770 nM | concentration at 1 h [3]: 3630 nM | IC50 (Thromboxane A2 receptor [4]): 1580 nM | IC50 [5]: > 10000 nM | IC50 [6]: 16 nM | IC50 [7]: 12.6 nM | Ki (Thromboxane A2 receptor [8]): 316 nM | Kbb [9]: 0.93 | IC50 [10]: 15.8 nM | solubility at 2 h [11]: 499 µg/mL | solubility at 24 h [12]: 1140 µg/mL | bioavailability [13]: 95% | clearance [14]: 26 mL/min/kg | Vd [15]: 0.5 L/kg | half-life [16]: 48 min | CL [17]: 8 mL/min/g | concentration at 0.5 h [18]: 277 nM | Kp at 18 h [19]: 0.33 | clearance [20]: 8 mL/min/kg | ED50 (Rattus norvegicus): 1.6 mg/kg | concentration at 1 h [21]: 317 nM | concentration at 1 h [22]: 1480 nM | concentration at 1 h [23]: 948 nM | concentration at 1 h [24]: 5530 nM | concentration at 1 h [25]: 3210 nM | Kp at 1 h [26]: 0.45 | Ki [27]: > 20000 nM | Fu [28]: 0.53% | Ki [29]: 2.51 nM
